According to patent publication US7906484B2, “Complex for transferring an anionic substance into a cell” (Alnylam Pharmaceuticals, Inc., priority 2006, dated 2011):
No end group written: not given here.

Legend:
cell viability = assay: CytoTox ONE cell viability assay; format: cell-based; settings: 2.5 μM peptide
Method: Delivery of siRNAs was tested in 7 different cell lines we obtained from the American Type Culture Collection, ATCC, via LCG Promochem GmbH, Wesel, Germany (PC12, ATTC# CRL-1721; HCT116, ATCC# CCL-247; C33A, ATCC# HTB-31; H441, ATCC# HTB-174; NMuLi, ATCC# CRL-1638; HepG2, ATCC# HB-8065; HeLa S3, ATCC# CCL2.2) and in the cell line KB-BCL2-GFP, as described in co-pending U.S. Ser. No. 10/941,663. Target mRNA quantification was performed using the QuantiGene™ bDNA-kit from Panomics, Inc., Fremont, USA, according to the manufacturers instructions, and essentially as described below for H441 cells. Genes constitutively expressed in the various cell lines were chosen as targets and results normalized to GAPDH expression. siRNA concentration was 250 nM, the concentration of the peptide was chosen as given by the molar ratio peptide/siRNA shown in Table 1. Cytotoxicity of peptides was evaluated employing the CytoTox-ONE™ assay (Promega GmbH, Mannheim, Germany).
Potential cytotoxic effects as mediator of inhibition were ruled out by determining cell viability in the presence of 2.5 μM of ppTG20, AP-0, AP-1, AP-27, AP-30, AP32 and AP-34 using the CytoTox ONE™ assay (Promega GmbH, Mannheim, Germany).

eGFP-mRNA = assay: Influence of peptide/siRNA ratio on siRNA activity in HCT116 cells; format: cell-based; settings: 250 nM siRNA
Method: The optimal ratio of (peptide):(anionic substance) for complex formation, was determined in section 3 above to lie in the range of 8:1 to 13:1 by titrating a fixed concentration of the anionic substance with increasing amounts of the peptide, and monitoring complex formation by electrophoresis of the mixture. To further validate and possibly narrow down the optimum ratio of peptide/anionic substance, an assay with a functional readout was performed. HCT116 cells were incubated with siRNA complexes as described above at concentrations such that the amount of siRNA in the incubation mixture corresponds to a 250 nM concentration of the siRNA, and the peptide/siRNA ratio was 8:1, 10:1, 12:1, or 14:1.

[1] = test system: E6AP mRNA in HCT116 cells; assay: siRNA AD-8724 delivery into HCT116 cells, inhibition of E6AP mRNA expression by bDNA assay; format: cell-based, human; settings: siRNA AD-8724 250 nM, molar peptide/siRNA ratio 12.5:1
Method: All further experiments were carried out using HCT116 cells and inhibition of E6AP expression as readout.
HCT116-cells were obtained from the American Type Culture Collection (ATCC# CCL-247). They were cultured in McCoy's 5A medium (Biochrom AG, Berlin, Germany, Cat.# F1015) containing 10% fetal calf serum (FCS; Biochrom AG, Berlin, Germany, Cat.# S0115) and 2 mM L-Glutamin (Biochrom AG, Berlin, Germany, Cat.#: K0283) (standard growth medium). For incubation with peptide/siRNA, complexes, the medium was replaced by serum-free McCoy's 5A medium containing 2 mM L-Glutamin (serum free medium). After incubation with complexes for 4 h, McCoy's 5A medium containing 30% fetal calf serum and 2 mM L-Glutamin (triple FCS medium) was added to restore an overall 10% FCS in the medium.
The E6AP-specific siRNA denoted AD-8724 herein was used, having the following sequences: antisense strand: 5′-ucacauuccacguuaggugTsT-3′ (SEQ ID NO:51), sense strand 5′-caccuaacguggaaugugaTsT-3′; (SEQ ID NO:52; lower case letters: ribonucleotides; s: phosphorothioate backbone linkage). As a negative control, an siRNA specific for eGFP, denoted AD-5107 herein, was used, having the following sequences: antisense strand: 5′-aagucgugcugcuucauguggOMesuOMesc-3′ (SEQ ID NO:19), sense strand 5′-[…]-3′ (SEQ ID NO:18; lower case letters: ribonucleotides; subscript OMe: 2′-O-methyl-ribonucleotide; s: phosphorothioate backbone linkage). In addition to the non-specific control siRNA AD-5107, mock transfected cells treated with standard growth medium only were used as negative controls. As a positive control, AD-8724 was transfected into the cells using Lipofectamine2000™ (Invitrogen, Karlsruhe, Germany, Cat. No. 11668-019). As a further control, AD-5107 was transfected into cells using Lipofectamine2000™. All assays were performed in quadruplicates.
SiRNA/peptide complexes were prepared by mixing a solution of the siRNA in deionized water with a solution of the peptide in deionized water at the appropriate concentrations to give the desired ratio of siRNA/peptide at the desired concentration of the complex. The mixture was incubated at room temperature for 30 min and kept at 4° C. until use, and used within 24 h.
For transfections with siRNA/peptide complexes, 1.5×10^5 HCT116-cells per well in 150 μl standard growth medium were seeded into polystyrene 96 well plates and grown for 24 h at 37° C. in an atmosphere containing 5% CO2. The medium was removed by aspiration, and 90 μl serum-free medium and 10 μl of siRNA/peptide complex solution were added. Cells were incubated for 4 h at 37° C./5% CO2, 50 μl triple FCS medium were added, and the cells incubated for another 20 h under identical conditions. Subsequently, E6AP mRNA content was determined as described below.
For Lipofectamine2000™ transfections, 0.5 μl Lipofectamine2000™ were mixed with 12 μl OptiMem™ (Invitrogen, Karlsruhe, Germany, Cat. No. 11058-021) and incubated for 15 min. 1 μl of a 5 μM solution of the respective siRNA in PBS (Biochrom AG, Berlin, Germany, Cat-No: L182-05) were added to 11.5 μl OptiMeM™, mixed with the Lipofectamine2000™/OptiMem™ solution, and incubated for further 15 min. 1.5×10^5 HCT116-cells per well in 150 μl standard growth medium were grown for 24 h as described above, the growth medium removed from the cells by aspiration, and 75 μl fresh standard growth medium and the 25 μl of the siRNA/Lipofectamine2000™ mix were added to the well, to give a final siRNA concentration of 50 nM. The cells were incubated for 24 h at 37° C./5% CO2 and E6AP mRNA concentration determined.
The QuantiGene™ bDNA-kit from Panomics, Inc., Fremont, USA, was used according to manufacturer's instructions. Briefly, cells were lysed by adding 50 μl of Lysis Mixture (from QuantiGene bDNA-kit) to each well and incubation at 53° C. for 1 h. […]

RLFRALLRLLRSLWRLLLRA [AP-1]
cell viability (cell viability): None of these peptides led to a significant alteration of cell viability

RLFPALLRLLRRLWRLLLRA [AP-6]
Remaining eGFP-mRNA in % of mock-transfected controls (eGFP-mRNA; peptide/siRNA ratio 8:1): 62 ± 9% | Remaining eGFP-mRNA in % of mock-transfected controls (eGFP-mRNA; peptide/siRNA ratio 10:1): 36 ± 8% | Remaining eGFP-mRNA in % of mock-transfected controls (eGFP-mRNA; peptide/siRNA ratio 12:1): 63 ± 18% | Remaining eGFP-mRNA in % of mock-transfected controls (eGFP-mRNA; peptide/siRNA ratio 14:1): 54 ± 9% | remaining E6AP mRNA (in % of mock) [1]: 41 ± 11%

GLYRALLRLLRSLWRLLLRA [AP-19]
remaining E6AP mRNA (in % of mock) [1]: 27 ± 9%

GLFRALLRLLRSLWRLLSRA [AP-16]
remaining E6AP mRNA (in % of mock) [1]: 43 ± 13%

HHHHHRLFRALLRLLRSLWRLLLRA [AP-30]
cell viability (cell viability): None of these peptides led to a significant alteration of cell viability

GLFRALLRLLRSLWRSLSRA [AP-18]
remaining E6AP mRNA (in % of mock) [1]: 49 ± 3%

HLFRALLRLLRSLWRLLHRA [AP-9]
Remaining eGFP-mRNA in % of mock-transfected controls (eGFP-mRNA; peptide/siRNA ratio 8:1): 38 ± 6% | Remaining eGFP-mRNA in % of mock-transfected controls (eGFP-mRNA; peptide/siRNA ratio 10:1): 31 ± 3% | Remaining eGFP-mRNA in % of mock-transfected controls (eGFP-mRNA; peptide/siRNA ratio 12:1): 22 ± 1% | Remaining eGFP-mRNA in % of mock-transfected controls (eGFP-mRNA; peptide/siRNA ratio 14:1): 36 ± 7% | remaining E6AP mRNA (in % of mock) [1]: 53 ± 17%

GLFRALLRLLRSLWRSLLRA [AP-17]
remaining E6AP mRNA (in % of mock) [1]: 37 ± 9%

GAFRAAARLLRSLWRALLRA [AP-24]
remaining E6AP mRNA (in % of mock) [1]: 91 ± 16%

GLFRALRRLLRSLWRLLRRA [AP-5]
remaining E6AP mRNA (in % of mock) [1]: 108 ± 47%

GAYRAALRLLRSLWRLLSRA [AP-26]
remaining E6AP mRNA (in % of mock) [1]: 78 ± 6%

GLYRALLRLLRSLWRLLSRA [AP-20]
remaining E6AP mRNA (in % of mock) [1]: 45 ± 6%

HLFRHLLRLLRHLWRHLLRA [AP-15]
Remaining eGFP-mRNA in % of mock-transfected controls (eGFP-mRNA; peptide/siRNA ratio 8:1): 32 ± 5% | Remaining eGFP-mRNA in % of mock-transfected controls (eGFP-mRNA; peptide/siRNA ratio 10:1): 26 + 2% | Remaining eGFP-mRNA in % of mock-transfected controls (eGFP-mRNA; peptide/siRNA ratio 12:1): 22 ± 4% | Remaining eGFP-mRNA in % of mock-transfected controls (eGFP-mRNA; peptide/siRNA ratio 14:1): 43 ± 5% | remaining E6AP mRNA (in % of mock) [1]: 77 ± 39%

GLFRALLRLLRSLWRLLLRAHHHHH [AP-0]
cell viability (cell viability): None of these peptides led to a significant alteration of cell viability

RLFRALLRLLRSLWRLLLRAHHHHHHHHHH [AP-34]
cell viability (cell viability): None of these peptides led to a significant alteration of cell viability

GLFRALLRLLRSLWRALARA [AP-22]
remaining E6AP mRNA (in % of mock) [1]: 32 ± 14%
